Data taken from US20160355483A1, “COMPOUND BINDING TO PPARG BUT NOT ACTING AS PROMOTER AND PHARMACEUTICAL COMPOSITION FOR TREATING PPARG-RELATED DISEASES CONTAINING SAME AS ACTIVE INGREDIENT” (Hyundai Pharm Co., Ltd., priority 2014, published 2016).
Entries after “also recorded” stand apart in the source; their conditions may differ.

How the values were obtained:
[1] = target: T1, PPARG (peroxisome proliferator activated receptor-gamma), GST-PPARG-LBD (Homo sapiens, UniProt P37231); assay: LanthaScreen TR-FRET PPARG Competitive Binding Assay; parameters: key: “+” indicates the degree of the binding activity, and as the number of “+” increases, the binding activity is stronger; ++: “+” indicates the degree of the binding activity, and as the number of “+” increases, the binding activity is stronger; +++: “+” indicates the degree of the binding activity, and as the number of “+” increases, the binding activity is stronger; ++++: “+” indicates the degree of the binding activity, and as the number of “+” increases, the binding activity is stronger; conditions: degree of binding activity
T1 construct: 15 μL of 5 nM GST-PPARG-LBD and 5 nM Tb-GST-antibody were added; purchased Invitrogen PV4894
T1 sequence (P37231 238-503 limits assumed): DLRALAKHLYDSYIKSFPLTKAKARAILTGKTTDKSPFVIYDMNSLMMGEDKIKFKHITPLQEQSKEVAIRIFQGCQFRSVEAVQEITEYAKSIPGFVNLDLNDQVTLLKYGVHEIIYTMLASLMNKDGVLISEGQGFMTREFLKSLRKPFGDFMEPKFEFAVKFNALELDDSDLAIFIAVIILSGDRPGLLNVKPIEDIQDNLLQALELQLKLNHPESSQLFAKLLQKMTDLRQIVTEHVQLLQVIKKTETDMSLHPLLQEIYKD
Summary of the method: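 Ratio of 518 nm to 488 nm time-resolved emission after a 1 h room-temperature incubation, in competition format with GST-PPARG ligand-binding domain. Values are expressed as 100% minus compound-to-vehicle ratio and related to rosiglitazone binding.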

[2] = tested on: CYP isozymes 1A2, 2C9, 2C19, and 2D6; assay: CYP suppression compared with comparative examples (Table 3); type: in vitro ADME; conditions: result in words
Protocol: (§1) To evaluate the CYP (cytochrome P450)-suppressing activity of the compounds prepared in the examples of the invention, the following experiment was performed.
(§2) The analysis of CYP1A2, 2C19, and 3A4 suppressing activity was performed by using a BD GENTEST (459100, 459400, and 459500) kit, and the analysis of CYP 2C9- and 2D6-suppressing activity was performed by using an Invitrogen (P2861 and P2862) kit.
(§3) When the Invitrogen kit was used, the compounds of the present invention were diluted in Vivid CYP450 reaction buffer (1×) at the final concentration of 2.5×. The P450 BACULOSOMES sample and Regeneration system (100×) were diluted in Vivid CYP450 reaction buffer (1×) at different proper concentrations. 80 μL of the compound of the invention (2.5×) and […] of the diluted P450 BACULOSOMES sample mixture were mixed in a U-bottom 96-well plate, followed by pre-incubation for 10 minutes. Vivid CYP450 Substrate and NADP+ (100×) were diluted in Vivid CYP450 reaction buffer (1×) at a desired concentration, respectively, according to their corresponding types of CYP450 and substrates. 20 μL of Substrate-NADP+ mix was loaded in the plate when the pre-incubation had been completed, followed by reaction for 1 hour. Upon completion of the reaction, the reaction mixture was transferred in a white plate and fluorescent wavelength was measured with a microplate reader (2C9 excitation 415 nm, emission 460 nm, 2D6 excitation 400 nm, emission 502 nm).
(§4) When the BD GENTEST kit was used, the compounds of the present invention were diluted in acetonitrile at the final concentration of 50×. The NADPH-Cofactor mix was prepared by diluting the Cofactor, G6PDH, and control protein provided by the kit in DW according to the instructed concentration. 4 μL of the compound of the example (50×) was mixed with 96 μL of NADPH-Cofactor mix in a 96-well plate, followed by pre-incubation in a 37° C. incubator for 10 minutes.
(§5) The enzyme/substrate mixture was diluted in the buffer (0.5 M potassium phosphate, pH 7.4) provided by the kit according to the instructed concentration. Each CYP450 enzyme substrate was diluted in DW at a desired concentration respectively according to the corresponding types of CYP450. 100 μL of the enzyme/substrate mixture was loaded in the plate when the pre-incubation had been completed, followed by reaction in a 37° C. incubator for 15 minutes (1A2) and 30 minutes (3A4 and 2C19). Upon completion of the reaction, the mixture was transferred to a white plate, and the fluorescent wavelength was measured with a microplate reader (1A2, 2C19 excitation 410 nm, emission 460 nm; 3A4, excitation 409 nm, emission 530 nm).
(§6) The test results were calculated by the following formula:
(§7) (1−(fluorescence value of the test material/fluorescence value of the vehicle))×100%.

CYP 2C9 = target: T2, CYP 2C9 (Homo sapiens, UniProt P11712); assay: CYP (cytochrome P450)-suppressing effect, Invitrogen Vivid kit; type: in vitro ADME
T2 construct: purchased Invitrogen P2861
T2 sequence (P11712 whole entry): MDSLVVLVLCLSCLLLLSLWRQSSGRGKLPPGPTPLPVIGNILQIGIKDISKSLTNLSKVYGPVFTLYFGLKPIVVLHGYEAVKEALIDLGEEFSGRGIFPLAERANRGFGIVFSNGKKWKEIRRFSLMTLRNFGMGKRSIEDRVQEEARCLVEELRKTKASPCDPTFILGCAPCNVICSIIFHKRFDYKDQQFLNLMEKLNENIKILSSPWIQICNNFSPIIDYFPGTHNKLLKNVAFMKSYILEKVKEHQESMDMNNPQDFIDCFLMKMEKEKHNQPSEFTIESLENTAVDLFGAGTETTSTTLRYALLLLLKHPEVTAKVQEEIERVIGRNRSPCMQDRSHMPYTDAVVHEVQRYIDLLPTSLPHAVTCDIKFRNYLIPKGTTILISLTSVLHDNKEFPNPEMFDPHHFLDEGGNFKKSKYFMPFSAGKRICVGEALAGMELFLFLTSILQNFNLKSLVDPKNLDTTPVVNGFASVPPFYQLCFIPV
Protocol: as §1, §2, §3, §6, §7

CYP 2D6 = target: T3, CYP 2D6 (Homo sapiens, UniProt P10635); assay: as above; type: in vitro ADME
T3 construct: purchased Invitrogen P2862
T3 sequence (P10635 whole entry): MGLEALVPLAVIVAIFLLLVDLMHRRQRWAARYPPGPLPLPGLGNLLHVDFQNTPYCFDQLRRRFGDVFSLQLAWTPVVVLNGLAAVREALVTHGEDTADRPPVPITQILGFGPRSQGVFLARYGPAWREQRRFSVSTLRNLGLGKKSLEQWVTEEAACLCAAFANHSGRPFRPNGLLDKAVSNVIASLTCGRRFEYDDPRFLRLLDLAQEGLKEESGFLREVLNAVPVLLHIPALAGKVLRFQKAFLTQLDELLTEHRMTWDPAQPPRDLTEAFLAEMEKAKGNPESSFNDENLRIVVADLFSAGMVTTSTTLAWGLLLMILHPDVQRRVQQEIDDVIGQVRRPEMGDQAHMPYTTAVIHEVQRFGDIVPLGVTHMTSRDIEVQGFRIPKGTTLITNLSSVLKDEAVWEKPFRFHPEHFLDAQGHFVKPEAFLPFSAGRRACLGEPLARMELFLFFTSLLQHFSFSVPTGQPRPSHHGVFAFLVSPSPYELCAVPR
Protocol: as §1, §2, §3, §6, §7

CYP1A2 = target: T4, CYP1A2 (Homo sapiens, UniProt P05177); assay: CYP (cytochrome P450)-suppressing effect, BD GENTEST kit; type: in vitro ADME
T4 construct: purchased BD GENTEST 459100
T4 sequence (P05177 1-516): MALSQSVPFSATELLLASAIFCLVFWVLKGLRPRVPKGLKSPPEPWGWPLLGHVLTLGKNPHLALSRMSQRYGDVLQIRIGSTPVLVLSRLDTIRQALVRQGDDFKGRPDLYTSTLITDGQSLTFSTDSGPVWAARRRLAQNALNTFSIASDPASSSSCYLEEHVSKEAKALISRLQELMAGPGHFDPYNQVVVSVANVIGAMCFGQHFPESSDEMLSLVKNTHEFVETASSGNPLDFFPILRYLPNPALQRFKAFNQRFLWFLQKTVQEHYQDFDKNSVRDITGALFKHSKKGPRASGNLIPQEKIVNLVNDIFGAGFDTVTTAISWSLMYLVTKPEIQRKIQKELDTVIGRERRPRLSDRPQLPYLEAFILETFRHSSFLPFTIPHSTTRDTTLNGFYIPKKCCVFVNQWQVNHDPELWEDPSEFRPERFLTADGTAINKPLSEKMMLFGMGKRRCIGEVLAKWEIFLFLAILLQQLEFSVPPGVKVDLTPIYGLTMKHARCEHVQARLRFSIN
Protocol: as §1, §2, §4, §5, §6, §7

CYP 2C19 = target: T5, CYP 2C19 (Homo sapiens, UniProt P33261); assay: as above; type: in vitro ADME
T5 construct: purchased BD GENTEST 459400
T5 sequence (P33261 whole entry): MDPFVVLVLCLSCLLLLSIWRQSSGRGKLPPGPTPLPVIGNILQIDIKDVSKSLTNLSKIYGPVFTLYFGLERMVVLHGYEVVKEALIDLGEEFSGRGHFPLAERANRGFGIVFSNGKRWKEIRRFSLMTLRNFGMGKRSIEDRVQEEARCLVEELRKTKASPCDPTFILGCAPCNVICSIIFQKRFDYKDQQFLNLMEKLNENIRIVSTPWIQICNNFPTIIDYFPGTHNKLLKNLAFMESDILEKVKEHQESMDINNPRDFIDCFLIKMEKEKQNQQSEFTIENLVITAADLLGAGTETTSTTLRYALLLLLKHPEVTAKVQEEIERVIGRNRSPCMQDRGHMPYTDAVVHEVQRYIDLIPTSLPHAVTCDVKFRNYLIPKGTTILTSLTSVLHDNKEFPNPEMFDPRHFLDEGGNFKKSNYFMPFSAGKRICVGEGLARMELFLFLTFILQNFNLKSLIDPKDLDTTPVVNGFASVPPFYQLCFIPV
Protocol: as §1, §2, §4, §5, §6, §7

CYP 3A4 = target: T6, CYP 3A4 (Homo sapiens, UniProt P08684); assay: as above; type: in vitro ADME
T6 construct: purchased BD GENTEST 459500
T6 sequence (P08684 whole entry): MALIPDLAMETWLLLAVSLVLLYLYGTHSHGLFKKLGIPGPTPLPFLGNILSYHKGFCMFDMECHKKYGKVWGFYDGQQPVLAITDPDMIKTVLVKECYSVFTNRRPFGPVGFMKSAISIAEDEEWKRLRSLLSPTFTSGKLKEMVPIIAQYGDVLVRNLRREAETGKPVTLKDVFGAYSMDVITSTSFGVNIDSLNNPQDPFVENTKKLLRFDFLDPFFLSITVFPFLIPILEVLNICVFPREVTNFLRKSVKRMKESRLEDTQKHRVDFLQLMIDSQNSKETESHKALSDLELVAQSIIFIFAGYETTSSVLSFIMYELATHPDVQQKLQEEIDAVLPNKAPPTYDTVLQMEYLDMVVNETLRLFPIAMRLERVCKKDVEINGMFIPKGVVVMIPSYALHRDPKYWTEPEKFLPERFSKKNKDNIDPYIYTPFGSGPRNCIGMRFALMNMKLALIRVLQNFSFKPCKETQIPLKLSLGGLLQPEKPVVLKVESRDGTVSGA
Protocol: as §1, §2, §4, §5, §6, §7

In the case of `C[C@H](NC(=O)c1ccc2c(c1)OCCN2Cc1ccc(-c2ccccc2C(N)=O)cc1)c1ccc2ccccc2c1` [Example 96, (S)-4-((2′-carbamoyl-[1,1′-biphenyl]-4-yl)methyl)-N-(1-(naphthalene-2-yl)ethyl)-3,4-dihydro-2H-benzo[b][1,4]oxazine-7-carboxamide], the “Binding assay (1 μLM)” value [1] was “+++”, the “suppression of CYP isozymes 1A2, 2C9, 2C19, and 2D6 compared with SR1664 and SR1824” value (shortened to “suppression … compared with SR1664 and SR1824”) [2] was “less than the compounds of the comparative examples; also recorded: less strongly than the compounds of the Comparative Examples” and the “CYP(10 μL, %) 2C9” value (CYP 2C9) was 57.63%. The “CYP(10 μL, %) 2D6” value (CYP 2D6) was 98.66%, the “CYP(10 μL, %) 1A2” value (CYP1A2) was 92.41% and the “CYP(10 μL, %) 2C19” value (CYP 2C19) was 52.35%. For the same molecule, the “CYP(10 μL, %) 3A4” value (CYP 3A4) was 98.04%.

`C[C@H](NC(=O)c1ccc2c(c1)CCCN2Cc1ccc(-c2ccccc2C(=O)O)cc1F)c1ccc(C#N)cc1` [Example 110, (S)-4′-((6-((1-(4-cyanophenyl)ethyl)carbamoyl)-3,4-dihydroquinoline-1(2H)-yl)methyl)-3′-fluoro-[1,1′-biphenyl]-2-carboxylic acid] was tested, and the “Binding assay (1 μLM)” value [1] was “+++”, the “suppression … compared with SR1664 and SR1824” value [2] was “less than the compounds of the comparative examples; also recorded: less strongly than the compounds of the Comparative Examples” and the “CYP(10 μL, %) 2C9” value (CYP 2C9) was 55.18%. The “CYP(10 μL, %) 2D6” value (CYP 2D6) was 88.44%, the “CYP(10 μL, %) 1A2” value (CYP1A2) was 97.28% and the “CYP(10 μL, %) 2C19” value (CYP 2C19) was 69.53%. For the same molecule, the “CYP(10 μL, %) 3A4” value (CYP 3A4) was 53.03%.

With `C[C@H](NC(=O)c1ccc2c(c1)CCCN2Cc1ccc(-c2ccccc2C(N)=O)cc1F)c1ccc([N+](=O)[O-])cc1` [Example 113, (S)-1-((2′-carbamoyl-3-fluoro-[1,1′-biphenyl]-4-yl)methyl)-N-(1-(4-nitrophenyl)ethyl)-1,2,3,4-tetrahydroquinoline-6-carboxamide] the “Binding assay (1 μLM)” value [1] was “++”, the “suppression … compared with SR1664 and SR1824” value [2] was “less than the compounds of the comparative examples; also recorded: less strongly than the compounds of the Comparative Examples” and the “CYP(10 μL, %) 2C9” value (CYP 2C9) was 67.73%. The “CYP(10 μL, %) 2D6” value (CYP 2D6) was 78.65%, the “CYP(10 μL, %) 1A2” value (CYP1A2) was 97.27% and the “CYP(10 μL, %) 2C19” value (CYP 2C19) was 54.70%. The “CYP(10 μL, %) 3A4” value (CYP 3A4) was 85.01%.

With `Cc1c(C)n(Cc2ccc(-c3ccccc3C(=O)O)cc2)c2ccc(C(=O)NC(C)c3ccc(Br)cc3)cc12` (stereo not drawn) [2 (SR1824), SR1824, reference compound] the “CYP(10 μL, %) 2C9” value (CYP 2C9) was 6.43%, the “CYP(10 μL, %) 2D6” value (CYP 2D6) was 68.34% and the “CYP(10 μL, %) 1A2” value (CYP1A2) was 64.12%. For the same molecule, the “CYP(10 μL, %) 2C19” value (CYP 2C19) was 32.45% and the “CYP(10 μL, %) 3A4” value (CYP 3A4) was 71.88%.

For `C[C@H](NC(=O)c1ccc2c(c1)OCCN2Cc1ccc(-c2ccccc2C(=O)O)cc1)c1ccccc1` [Example 58, (S)-4′-((7-((1-phenylethyl)carbamoyl)-2H-benzo[b][1,4]oxazine-4(3H)-yl)methyl)-[1,1′-biphenyl]-2-carboxylic acid], the “Binding assay (1 μLM)” value [1] was “+”, the “suppression … compared with SR1664 and SR1824” value [2] was “less than the compounds of the comparative examples; also recorded: less strongly than the compounds of the Comparative Examples” and the “CYP(10 μL, %) 2C9” value (CYP 2C9) was 57.47%. For the same molecule, the “CYP(10 μL, %) 2D6” value (CYP 2D6) was 55.23%, the “CYP(10 μL, %) 1A2” value (CYP1A2) was 100.93% and the “CYP(10 μL, %) 2C19” value (CYP 2C19) was 70.53%. For the same molecule, the “CYP(10 μL, %) 3A4” value (CYP 3A4) was 56.92%.

With `C[C@H](NC(=O)c1ccc2c(c1)CCCN2Cc1ccc(-c2ccccc2C(=O)[O-])cc1)c1ccc(C#N)cc1.[Na+]` [Example 57, sodium (S)-4′-((6-((1-(4-cyanophenyl)ethyl)carbamoyl)-3,4-dihydroquinoline-1(2H)-yl)methyl)-[1,1′-biphenyl]-2-carboxylate] the “Binding assay (1 μLM)” value [1] was “+++”, the “suppression … compared with SR1664 and SR1824” value [2] was “less than the compounds of the comparative examples; also recorded: less strongly than the compounds of the Comparative Examples” and the “CYP(10 μL, %) 2C9” value (CYP 2C9) was 58.87%. The “CYP(10 μL, %) 2D6” value (CYP 2D6) was 82.59%, the “CYP(10 μL, %) 1A2” value (CYP1A2) was 100.32% and the “CYP(10 μL, %) 2C19” value (CYP 2C19) was 75.69%. For the same molecule, the “CYP(10 μL, %) 3A4” value (CYP 3A4) was 59.17%.

`C[C@H](NC(=O)c1ccc2c(c1)CCCN2Cc1ccc(-c2ccccc2C(=O)O)cc1)c1ccc(C#N)cc1` [Example 14, (S)-4′-((6-((1-(4-cyanophenyl)ethyl)carbamoyl)-3,4-dihydroquinoline-1(2H)-yl)methyl)-[1,1′-biphenyl]-2-caboxylic acid] was tested, and the “Binding assay (1 μLM)” value [1] was “++”, the “suppression … compared with SR1664 and SR1824” value [2] was “less than the compounds of the comparative examples; also recorded: less strongly than the compounds of the Comparative Examples” and the “CYP(10 μL, %) 2C9” value (CYP 2C9) was 64.28%. The “CYP(10 μL, %) 2D6” value (CYP 2D6) was 86.13%, the “CYP(10 μL, %) 1A2” value (CYP1A2) was 97.99% and the “CYP(10 μL, %) 2C19” value (CYP 2C19) was 79.96%. For the same molecule, the “CYP(10 μL, %) 3A4” value (CYP 3A4) was 71.24%.

`C[C@H](NC(=O)c1ccc2c(c1)CCCN2Cc1cc(-c2ccccc2C(N)=O)ccc1F)c1ccc([N+](=O)[O-])cc1` [Example 139, (S)-1-((2′-carbamoyl-4-fluoro-[1,1′-biphenyl]-3-yl)methyl)-N-(1-(4-nitrophenyl)ethyl)-1,2,3,4-tetrahydroquinoline-6-carboxamide] was tested, and the “Binding assay (1 μLM)” value [1] was “+++”, the “suppression … compared with SR1664 and SR1824” value [2] was “less than the compounds of the comparative examples; also recorded: less strongly than the compounds of the Comparative Examples” and the “CYP(10 μL, %) 2C9” value (CYP 2C9) was 63.24%. For the same molecule, the “CYP(10 μL, %) 2D6” value (CYP 2D6) was 80.63%, the “CYP(10 μL, %) 1A2” value (CYP1A2) was 94.00% and the “CYP(10 μL, %) 2C19” value (CYP 2C19) was 53.50%. The “CYP(10 μL, %) 3A4” value (CYP 3A4) was 60.95%.
